Results reported in patent US6649402B2, “Microfabricated microbial growth assay method and apparatus” (Wisconsin Alumni Research Foundation, priority 2001, dated 2003).

Test system: E. coli K-12 MG 1655
Assay: microbial growth assay by impedance (capacitance and resistance) measurement in 30 μl wells
Type: cell-based
Conditions: 37° C.
Description: As an example of the utilization of the apparatus 20 of FIGS. 1 and 2, a single colony of E. coli K-12 MG 1655 was used to inoculate five ml of Luria Broth (LB) which was grown overnight at 37° C. with constant aeration. A 1% inoculum was used to subculture in fresh LB medium and grew to OD600 of 0.5 (measured by a Beckman DU-20 spectrophotometer). 15 μl of cell culture was mixed with 15 μl of LB medium in samples with and without ampicillin (100 μg/ml), and aliquoted into the wells 22. In addition, an equal volume of LB medium (30 μl) with ampicillin was aliquoted into an additional well to function as a negative control.
The switch/control unit 34 was used to switch the connection of the LCR meter 36 to the conductors 30 and 31 leading to the electrodes of the wells 22 in sequence. A 10 mV rms alternating current signal of varying frequency (between 75 kHz and 30 MHz) was used for electrical excitation and was applied between the electrodes 24 and 25. […] At each frequency, impedance (capacitance and resistance) was measured between the electrodes 24 and 25 for each of the four wells. […] The values of the impedance (assuming a parallel RC equivalent circuit model, resistance and capacitance, R and C) between the electrodes 24 and 25 at each of the cells was recorded periodically over about 16 hours under the control of the computer 41. […]

Question: How did the “capacitance (and resistance) between the electrodes at a well containing bacteria over time” value (ampicillin 100 μg/ml in LB medium, measured at 75 kHz and 400 kHz, about 16 hours, relative to control well without bacteria, without ampicillin capacitance increases exponentially) turn out when CC1(C)S[C@@H]2[C@H](NC(=O)[C@H](N)c3ccccc3)C(=O)N2[C@H]1C(=O)O [ampicillin] was run?
Answer: remains constant

Question: And the “time within which the antibacterial effect can be detected” value (ampicillin 100 μg/ml, E. coli in LB medium, impedance readout)?
Answer: less than one hour
